From ChEMBL document CHEMBL1141965, “Preparation of human Melanocortin-4 receptor agonist libraries: linear peptides X-Y-DPhe7-Arg8-Trp(or 2-Nal)9-Z-NH2” (Bioorg Med Chem Lett, 2005)
pEC50: −log10 of the molar value. Non-standard residues stand in square brackets, D forms with d. Residues, ends and D or L forms follow the SMILES beside them. ξ: configuration not given here. *: point of attachment. Ac6c(4-Ph-cis-to-N) = N[C@]1(C(=O)O)CC[C@H](c2ccccc2)CC1; ξAtc(5-Br) = NC1(C(=O)O)CCc2c(Br)cccc2C1; Pentanoyl = CCCCC(=O)*

Assays:
Melanocortin receptor 4 [1] = biological target: T1, Melanocortin receptor 4 (Homo sapiens, UniProt P32245); experiment: Agonist activity in HEK293 cells transfected with human MC4R by cAMP accumulation; assay type: functional, cell-based
T1 sequence (P32245 whole entry): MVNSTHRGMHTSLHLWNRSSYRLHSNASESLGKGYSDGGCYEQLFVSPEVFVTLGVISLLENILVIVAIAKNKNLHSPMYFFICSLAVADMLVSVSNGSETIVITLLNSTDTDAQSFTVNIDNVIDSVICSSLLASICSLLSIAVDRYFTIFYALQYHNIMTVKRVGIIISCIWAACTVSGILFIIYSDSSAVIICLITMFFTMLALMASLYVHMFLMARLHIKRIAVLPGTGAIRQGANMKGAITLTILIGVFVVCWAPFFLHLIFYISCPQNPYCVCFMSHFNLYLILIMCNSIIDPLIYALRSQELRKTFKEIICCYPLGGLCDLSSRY

[2] = biological target: T2, Melanocyte-stimulating hormone receptor (Homo sapiens, UniProt Q01726); experiment: Agonist activity at human MC1R at 50 uM; assay type: functional
Target sequence in this assay (Q01726 whole entry, looked up): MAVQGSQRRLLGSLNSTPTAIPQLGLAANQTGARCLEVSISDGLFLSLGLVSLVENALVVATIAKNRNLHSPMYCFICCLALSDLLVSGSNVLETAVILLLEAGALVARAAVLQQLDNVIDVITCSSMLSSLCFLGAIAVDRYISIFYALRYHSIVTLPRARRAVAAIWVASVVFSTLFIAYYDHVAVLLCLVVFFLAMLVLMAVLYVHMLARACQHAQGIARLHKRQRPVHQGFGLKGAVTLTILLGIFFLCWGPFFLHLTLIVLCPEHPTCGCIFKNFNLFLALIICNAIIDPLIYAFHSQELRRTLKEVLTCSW

[3] = biological target: T2, Melanocyte-stimulating hormone receptor; experiment: Agonist activity at human MC1R at 10 uM; assay type: functional
Target sequence in this assay (Q01726 whole entry, looked up): as above

Melanocortin receptor 4 [4] = biological target: T1, Melanocortin receptor 4; experiment: Agonist activity at human MC4R at 100 nM; assay type: functional
[5] = biological target: T2, Melanocyte-stimulating hormone receptor; experiment: Agonist activity in HEK293 cells transfected with human MC1R by cAMP accumulation; assay type: functional, cell-based
Target sequence in this assay (Q01726 whole entry): as the sequence (Q01726 whole entry, looked up) above

[6] = biological target: T2, Melanocyte-stimulating hormone receptor; experiment: Agonist activity at human MC1R at 100 nM; assay type: functional
Target sequence in this assay (Q01726 whole entry, looked up): as above

SMILES	pEC50 (Melanocortin receptor 4 [1])	Activity [3]	also measured
CCCCC(=O)N[C@]1(C(=O)N[C@H](Cc2ccccc2)C(=O)N[C@@H](CCCN=C(N)N)C(=O)N[C@@H](Cc2ccc3ccccc3c2)C(=O)NCC(N)=O)CC[C@H](c2ccccc2)CC1	7.30		
CCCC(=O)N[C@]1(C(=O)N[C@H](Cc2ccccc2)C(=O)N[C@@H](CCCN=C(N)N)C(=O)N[C@@H](Cc2ccc3ccccc3c2)C(=O)Nc2ccccc2C(N)=O)CC[C@H](c2ccccc2)CC1	7.41		
CCCC(=O)N[C@]1(C(=O)N[C@H](Cc2ccccc2)C(=O)N[C@@H](CCCN=C(N)N)C(=O)NC(Cc2ccc3ccccc3c2)C(=O)NCCC(N)=O)CC[C@H](c2ccccc2)CC1 (some centres undefined)		25%	Activity (Melanocortin receptor 4 [4]): > 30%
CCCC(=O)N[C@]1(C(=O)N[C@H](Cc2ccccc2)C(=O)N[C@@H](CCCN=C(N)N)C(=O)N[C@@H](Cc2ccc3ccccc3c2)C(=O)NCC(N)=O)CC[C@H](c2ccccc2)CC1	7.36	25%	Activity (Melanocortin receptor 4 [4]): > 30%
CCCCC(=O)NC1(C(=O)N[C@H](Cc2ccccc2)C(=O)N[C@@H](CCCN=C(N)N)C(=O)N[C@@H](Cc2ccc3ccccc3c2)C(=O)NCC(N)=O)CCc2c(Br)cccc2C1 (some centres undefined)	6.70		pEC50 [5]: 5.54
CCCC(=O)N[C@]1(C(=O)N[C@H](Cc2ccccc2)C(=O)N[C@@H](CCCN=C(N)N)C(=O)N[C@@H](Cc2c[nH]c3ccccc23)C(=O)N[C@@H](C)C(N)=O)CC[C@H](c2ccccc2)CC1	8.52		Activity [2]: 25%
CCCC(=O)NC1(C(=O)N[C@H](Cc2ccccc2)C(=O)N[C@@H](CCCN=C(N)N)C(=O)NC(Cc2ccc3ccccc3c2)C(=O)NCCC(N)=O)CCc2c(Br)cccc2C1 (some centres undefined)			Activity (Melanocortin receptor 4 [4]): 32%; Activity [6]: 40%
CCCC(=O)N[C@]1(C(=O)N[C@H](Cc2ccccc2)C(=O)N[C@@H](CCCN=C(N)N)C(=O)NC(Cc2ccc3ccccc3c2)C(=O)Nc2ccccc2C(N)=O)CC[C@H](c2ccccc2)CC1 (some centres undefined)		50%	Activity (Melanocortin receptor 4 [4]): > 30%
CCCCC(=O)N[C@]1(C(=O)N[C@H](Cc2ccccc2)C(=O)N[C@@H](CCCN=C(N)N)C(=O)NC(Cc2ccc3ccccc3c2)C(=O)NCC(N)=O)CC[C@H](c2ccccc2)CC1 (some centres undefined)			Activity [2]: 60%
CCCC(=O)N[C@]1(C(=O)N[C@H](Cc2ccccc2)C(=O)N[C@@H](CCCN=C(N)N)C(=O)N[C@@H](Cc2ccc3ccccc3c2)C(=O)NCCC(N)=O)CC[C@H](c2ccccc2)CC1	7.05		
CCCC(=O)NC1(C(=O)N[C@H](Cc2ccccc2)C(=O)N[C@@H](CCCN=C(N)N)C(=O)NC(Cc2ccc3ccccc3c2)C(=O)NCC(N)=O)CCc2c(Br)cccc2C1 (some centres undefined)			Activity (Melanocortin receptor 4 [4]): 30%; Activity [6]: 26%
CCCC(=O)N[C@]1(C(=O)N[C@H](Cc2ccccc2)C(=O)N[C@@H](CCCN=C(N)N)C(=O)N[C@@H](Cc2ccc3ccccc3c2)C(=O)NCc2cccc(C(N)=O)c2)CC[C@H](c2ccccc2)CC1	6.96		
CCCC(=O)N[C@]1(C(=O)N[C@H](Cc2ccccc2)C(=O)N[C@@H](CCCN=C(N)N)C(=O)NC(Cc2ccc3ccccc3c2)C(=O)NCc2cccc(C(N)=O)c2)CC[C@H](c2ccccc2)CC1 (some centres undefined)		25%	Activity (Melanocortin receptor 4 [4]): > 30%
N=C(N)NCCC[C@H](NC(=O)[C@@H](Cc1ccccc1)NC(=O)C1(NC(=O)Cc2ccccc2)CCc2c(Br)cccc2C1)C(=O)N[C@@H](Cc1c[nH]c2ccccc12)C(=O)Nc1ccccc1C(N)=O (some centres undefined)	7.96	50%	
N=C(N)NCCC[C@H](NC(=O)[C@@H](Cc1ccccc1)NC(=O)[C@]1(NC(=O)Cc2ccccc2)CC[C@@H](c2ccccc2)CC1)C(=O)N[C@@H](Cc1c[nH]c2ccccc12)C(=O)NCc1cccc(C(N)=O)c1	8.70	60%	
N=C(N)NCCC[C@H](NC(=O)[C@@H](Cc1ccccc1)NC(=O)[C@]1(NC(=O)Cc2ccccc2)CC[C@@H](c2ccccc2)CC1)C(=O)N[C@@H](Cc1c[nH]c2ccccc12)C(=O)Nc1ccccc1C(N)=O	8.52	75%	
CCCCC(=O)N[C@]1(C(=O)N[C@H](Cc2ccccc2)C(=O)N[C@@H](CCCN=C(N)N)C(=O)N[C@@H](Cc2c[nH]c3ccccc23)C(=O)NCC(N)=O)CC[C@H](c2ccccc2)CC1 (Pentanoyl-[Ac6c(4-Ph-cis-to-N)][dF]RWG-NH2)			Activity [2]: 25%
CCCCC(=O)NC1(C(=O)N[C@H](Cc2ccccc2)C(=O)N[C@@H](CCCN=C(N)N)C(=O)N[C@@H](Cc2c[nH]c3ccccc23)C(=O)NCC(N)=O)CCc2c(Br)cccc2C1 (some centres undefined) (Pentanoyl-[ξAtc(5-Br)][dF]RWG-NH2)			Activity [2]: 50%
N=C(N)NCCC[C@H](NC(=O)[C@@H](Cc1ccccc1)NC(=O)[C@]1(NC(=O)Cc2ccccc2)CC[C@@H](c2ccccc2)CC1)C(=O)N[C@@H](Cc1c[nH]c2ccccc12)C(=O)NCc1ccc(C(N)=O)cc1	9.00	70%	
CCCC(=O)N[C@]1(C(=O)N[C@H](Cc2ccccc2)C(=O)N[C@@H](CCCN=C(N)N)C(=O)N[C@@H](Cc2c[nH]c3ccccc23)C(=O)NCCC(N)=O)CC[C@H](c2ccccc2)CC1	8.30		Activity [2]: 50%
CCCC(=O)N[C@]1(C(=O)N[C@H](Cc2ccccc2)C(=O)N[C@@H](CCCN=C(N)N)C(=O)NC(Cc2ccc3ccccc3c2)C(=O)N[C@@H](C)C(N)=O)CC[C@H](c2ccccc2)CC1 (some centres undefined)		25%	Activity (Melanocortin receptor 4 [4]): > 30%; pEC50 (Melanocortin receptor 4 [1]; hek293): 6.66
CCCC(=O)N[C@]1(C(=O)N[C@H](Cc2ccccc2)C(=O)N[C@@H](CCCN=C(N)N)C(=O)NC(Cc2ccc3ccccc3c2)C(=O)NCc2ccc(C(N)=O)cc2)CC[C@H](c2ccccc2)CC1 (some centres undefined)			Activity (Melanocortin receptor 4 [4]): > 30%; Activity [2]: 15%
CCCC(=O)NC1(C(=O)N[C@H](Cc2ccccc2)C(=O)N[C@@H](CCCN=C(N)N)C(=O)N[C@@H](Cc2ccc3ccccc3c2)C(=O)Nc2ccccc2C(N)=O)CCc2c(Br)cccc2C1 (some centres undefined)	7.14		
CCCC(=O)NC1(C(=O)N[C@H](Cc2ccccc2)C(=O)N[C@@H](CCCN=C(N)N)C(=O)NC(Cc2ccc3ccccc3c2)C(=O)Nc2ccccc2C(N)=O)CCc2c(Br)cccc2C1 (some centres undefined)			Activity (Melanocortin receptor 4 [4]): > 30%; Activity [2]: 60%
CCCC(=O)NC1(C(=O)N[C@H](Cc2ccccc2)C(=O)N[C@@H](CCCN=C(N)N)C(=O)N[C@@H](Cc2c[nH]c3ccccc23)C(=O)Nc2ccccc2C(N)=O)CCc2c(Br)cccc2C1 (some centres undefined)	7.82		Activity [2]: 65%
CCCC(=O)N[C@]1(C(=O)N[C@H](Cc2ccccc2)C(=O)N[C@@H](CCCN=C(N)N)C(=O)N[C@@H](Cc2ccc3ccccc3c2)C(=O)NCc2ccc(C(N)=O)cc2)CC[C@H](c2ccccc2)CC1	7.07		

Continued, in another order:

pEC50 (Melanocortin receptor 4 [1])	Activity [3]	SMILES	also measured
8.70		CCCCNC(=O)N[C@]1(C(=O)N[C@H](Cc2ccccc2)C(=O)N[C@@H](CCCN=C(N)N)C(=O)N[C@@H](Cc2c[nH]c3ccccc23)C(=O)NCCC(N)=O)CC[C@H](c2ccccc2)CC1	Activity [2]: 50%
8.30	45%	NC(=O)CCNC(=O)[C@H](Cc1c[nH]c2ccccc12)NC(=O)[C@H](CCCN=C(N)N)NC(=O)[C@@H](Cc1ccccc1)NC(=O)[C@]1(NC(=O)Cc2ccccc2)CC[C@@H](c2ccccc2)CC1	
7.82	50%	CCCCNC(=O)NC1(C(=O)N[C@H](Cc2ccccc2)C(=O)N[C@@H](CCCN=C(N)N)C(=O)N[C@@H](Cc2c[nH]c3ccccc23)C(=O)Nc2ccccc2C(N)=O)CCc2c(Br)cccc2C1 (some centres undefined)	
8.70	55%	CCCCNC(=O)N[C@]1(C(=O)N[C@H](Cc2ccccc2)C(=O)N[C@@H](CCCN=C(N)N)C(=O)N[C@@H](Cc2c[nH]c3ccccc23)C(=O)NCC(N)=O)CC[C@H](c2ccccc2)CC1	
8.70		CCCCNC(=O)N[C@]1(C(=O)N[C@H](Cc2ccccc2)C(=O)N[C@@H](CCCN=C(N)N)C(=O)N[C@@H](Cc2c[nH]c3ccccc23)C(=O)N[C@@H](C)C(N)=O)CC[C@H](c2ccccc2)CC1	Activity [2]: 25%
8.70	60%	CCCC(=O)N[C@]1(C(=O)N[C@H](Cc2ccccc2)C(=O)N[C@@H](CCCN=C(N)N)C(=O)N[C@@H](Cc2c[nH]c3ccccc23)C(=O)Nc2ccccc2C(N)=O)CC[C@H](c2ccccc2)CC1	
8.70	30%	NC(=O)CNC(=O)[C@H](Cc1c[nH]c2ccccc12)NC(=O)[C@H](CCCN=C(N)N)NC(=O)[C@@H](Cc1ccccc1)NC(=O)[C@]1(NC(=O)Cc2ccccc2)CC[C@@H](c2ccccc2)CC1	
9.00	50%	CCCC(=O)N[C@]1(C(=O)N[C@H](Cc2ccccc2)C(=O)N[C@@H](CCCN=C(N)N)C(=O)N[C@@H](Cc2c[nH]c3ccccc23)C(=O)NCc2ccc(C(N)=O)cc2)CC[C@H](c2ccccc2)CC1	
8.52	30%	C[C@H](NC(=O)[C@H](Cc1c[nH]c2ccccc12)NC(=O)[C@H](CCCN=C(N)N)NC(=O)[C@@H](Cc1ccccc1)NC(=O)[C@]1(NC(=O)Cc2ccccc2)CC[C@@H](c2ccccc2)CC1)C(N)=O	
8.70		CCCC(=O)N[C@]1(C(=O)N[C@H](Cc2ccccc2)C(=O)N[C@@H](CCCN=C(N)N)C(=O)N[C@@H](Cc2c[nH]c3ccccc23)C(=O)NCc2cccc(C(N)=O)c2)CC[C@H](c2ccccc2)CC1	Activity [2]: 50%
8.70	60%	CCCCNC(=O)N[C@]1(C(=O)N[C@H](Cc2ccccc2)C(=O)N[C@@H](CCCN=C(N)N)C(=O)N[C@@H](Cc2c[nH]c3ccccc23)C(=O)NCc2cccc(C(N)=O)c2)CC[C@H](c2ccccc2)CC1	
8.70	75%	CCCCNC(=O)N[C@]1(C(=O)N[C@H](Cc2ccccc2)C(=O)N[C@@H](CCCN=C(N)N)C(=O)N[C@@H](Cc2c[nH]c3ccccc23)C(=O)Nc2ccccc2C(N)=O)CC[C@H](c2ccccc2)CC1	
